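Protocol summary: plate cells (96-well), add compound at 5 concentrations, incubate 48 h, interpolate endpoints linearly. Definition used: TGI = concentration required for complete inhibition of growth.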
Key:
Assay in all cases: NCI anticancer screen, dose series, 48 h
[1] = tested on: HCT-116 colon
[2] = tested on: U251 CNS
[3] = tested on: SK-MEL-2 melanoma
[4] = tested on: HT29 colon
[5] = tested on: UACC-257 melanoma
[6] = tested on: NCI-H226 lung
[7] = tested on: KM12 colon
[8] = tested on: SK-MEL-5 melanoma
[9] = tested on: M14 melanoma
[10] = tested on: DU-145 prostate
[11] = tested on: SR leukemia
[12] = tested on: HOP-92 NSCLC
[13] = tested on: 786-0 renal
[14] = tested on: NCI-H460 lung
[15] = tested on: MDA-MB-435
[16] = tested on: SF-268 CNS
[17] = tested on: SK-MEL-28 melanoma
[18] = tested on: SNB-75 CNS
[19] = tested on: MDA-MB-231 breast
[20] = tested on: SNB-19 CNS
[21] = tested on: BT-549 breast
[22] = tested on: NCI-H23 lung
[23] = tested on: TK-10 renal
[24] = tested on: A498 renal
[25] = tested on: IGROV1 ovarian
[26] = tested on: SW-620 colon
[27] = tested on: HOP-62 NSCLC
[28] = tested on: OVCAR-8 ovarian
[29] = tested on: MOLT-4 leukemia
[30] = tested on: PC-3 prostate
[31] = tested on: CCRF-CEM leukemia
[32] = tested on: HS 578T breast
[33] = tested on: NCI/ADR-RES ovarian
[34] = tested on: ACHN renal
[35] = tested on: OVCAR-4 ovarian
[36] = tested on: UO-31 renal
[37] = tested on: HCT-15 colon
[38] = tested on: EKVX NSCLC
[39] = tested on: CAKI-1 renal
[40] = tested on: MDA-N
[41] = tested on: K-562 leukemia
[42] = tested on: SF-295 CNS
[43] = tested on: A549 NSCLC
[44] = tested on: OVCAR-3 ovarian
[45] = tested on: OVCAR-5 ovarian
[46] = tested on: LOX IMVI melanoma
[47] = tested on: RPMI-8226 leukemia
[48] = tested on: RXF 393 renal
[49] = tested on: NCI-H522 lung
[50] = tested on: SN12C renal
[51] = tested on: T-47D breast
[52] = tested on: MALME-3M melanoma
[53] = tested on: UACC-62 melanoma
[54] = tested on: HCC-2998 colon
[55] = tested on: MCF7 breast
[56] = tested on: HL-60(TB) leukemia
[57] = tested on: SF-539 CNS
[58] = tested on: COLO 205 colon

With `NC(=O)NC(CC(=O)O)C(=O)O` (configuration not stated) the TGI [1] was over 100 µM, the TGI [2] was over 100 µM and the TGI [3] was over 100 µM. For the same compound, the TGI [4] was over 100 µM, the TGI [5] was over 100 µM and the TGI [6] was over 100 µM. It also gave a TGI [7] of over 100 µM, a TGI [8] of over 100 µM and a TGI [9] of over 100 µM. It also gave a TGI [10] of over 100 µM, a TGI [11] of over 100 µM and a TGI [12] of over 100 µM. It also gave a TGI [13] of over 100 µM, a TGI [14] of over 100 µM and a TGI [15] of over 100 µM. For the same compound, the TGI [16] was over 100 µM, the TGI [17] was over 100 µM and the TGI [18] was over 100 µM. For the same compound, the TGI [19] was over 100 µM, the TGI [20] was over 100 µM and the TGI [21] was over 100 µM. It also gave a TGI [22] of over 100 µM, a TGI [23] of over 100 µM and a TGI [24] of over 100 µM. For the same compound, the TGI [25] was over 100 µM, the TGI [26] was over 100 µM and the TGI [27] was over 100 µM. For the same compound, the TGI [28] was over 100 µM, the TGI [29] was over 100 µM and the TGI [30] was over 100 µM. For the same compound, the TGI [31] was over 100 µM, the TGI [32] was over 100 µM and the TGI [33] was over 100 µM. For the same compound, the TGI [34] was over 100 µM, the TGI [35] was over 100 µM and the TGI [36] was over 100 µM. The TGI [37] was over 100 µM, the TGI [38] was over 100 µM and the TGI [39] was over 100 µM. The TGI [40] was over 100 µM, the TGI [41] was over 100 µM and the TGI [42] was over 100 µM. The TGI [43] was over 100 µM, the TGI [44] was over 100 µM and the TGI [45] was over 100 µM. It also gave a TGI [46] of over 100 µM, a TGI [47] of over 100 µM and a TGI [48] of over 100 µM. It also gave a TGI [49] of over 100 µM, a TGI [50] of over 100 µM and a TGI [51] of over 100 µM. It also gave a TGI [52] of over 100 µM, a TGI [53] of over 100 µM and a TGI [54] of over 100 µM.
In the case of `Cn1c(=O)cc(NNc2ccc(Br)cc2)[nH]c1=O`, the TGI [1] is reported as 29.3 µM, the TGI [2] is reported as 10 µM and the TGI [4] is reported as 12.2 µM. For the same compound, the TGI [5] was 29.1 µM, the TGI [6] was 39.1 µM and the TGI [7] was 10.4 µM. It also gave a TGI [8] of 30.2 µM, a TGI [9] of 33.4 µM and a TGI [10] of 19.3 µM. It also gave a TGI [11] of over 100 µM, a TGI [12] of 27.7 µM and a TGI [13] of 21.4 µM. For the same compound, the TGI [14] was 19.3 µM, the TGI [15] was 25.3 µM and the TGI [17] was 34.7 µM. It also gave a TGI [19] of 27.7 µM, a TGI [20] of 26.5 µM and a TGI [21] of 30.6 µM. It also gave a TGI [23] of 34.9 µM, a TGI [24] of over 100 µM and a TGI [25] of 23.1 µM. The TGI [26] was 15.6 µM, the TGI [27] was 29.5 µM and the TGI [28] was 41.4 µM. It also gave a TGI [30] of 22.1 µM, a TGI [55] of 26.8 µM and a TGI [31] of over 100 µM. The TGI [32] was 9.34 µM, the TGI [33] was over 100 µM and the TGI [34] was 29.9 µM. It also gave a TGI [56] of 7.14 µM, a TGI [35] of 30.3 µM and a TGI [36] of 30 µM. It also gave a TGI [37] of 19.6 µM, a TGI [38] of 37.5 µM and a TGI [40] of 28.6 µM. The TGI [41] was over 100 µM, the TGI [42] was 26.2 µM and the TGI [43] was 29.8 µM. It also gave a TGI [57] of 8.14 µM, a TGI [44] of 14.7 µM and a TGI [45] of 26.2 µM. The TGI [46] was 4.13 µM, the TGI [47] was 46 µM and the TGI [50] was 22.6 µM. The TGI [58] was 13.7 µM, the TGI [52] was 31.4 µM and the TGI [54] was 13.9 µM.

Source: PubChem BioAssay (NCI)
